The values below come from patent US20190031618A1, “BENZIMIDAZOLE DERIVATIVES USEFUL AS CB-1 INVERSE AGONISTS” (Janssen Pharmaceutica NV, priority 2015, published 2019).

The structures appear in SMILES notation. Where only a bound is given, the exact number is not on record here.

In assay [1] the target is Human CB2R (Cannabinoid receptor 2) (Homo sapiens, UniProt P34972). The assay is described as follows: CB-2 in vitro cAMP (HTRF) assay. It counts as cell-based. To be noted: HEK cells, cAMP HTRF, 250 nM forskolin; mean where tested more than once; read-out: CB2 HEK_cAMP EC50. The gist of the method: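 HEK-293 cells stably expressing receptor, plated overnight at 4E5 cells/mL, tested with 1/3 serial dilutions of compound in HBSS/HEPES/BSA buffer with 0.5 mM IBMX and forskolin (diluted to 1.5 μM in buffer). cAMP measured by competitive HTRF immunoassay (d2-cAMP, cryptate anti-cAMP), signal inversely proportional to cAMP.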
Human CB2R (Cannabinoid receptor 2), sequence (P34972 whole entry): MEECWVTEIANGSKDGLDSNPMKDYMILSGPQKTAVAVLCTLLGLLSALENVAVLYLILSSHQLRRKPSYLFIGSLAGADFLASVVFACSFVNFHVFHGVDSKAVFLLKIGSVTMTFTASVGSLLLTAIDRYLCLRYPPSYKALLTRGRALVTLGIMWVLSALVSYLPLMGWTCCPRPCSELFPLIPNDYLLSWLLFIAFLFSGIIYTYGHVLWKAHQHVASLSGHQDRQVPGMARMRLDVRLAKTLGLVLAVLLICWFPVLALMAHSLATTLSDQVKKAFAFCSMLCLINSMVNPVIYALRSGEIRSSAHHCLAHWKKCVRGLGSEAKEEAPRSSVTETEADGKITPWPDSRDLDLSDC
On the technique in general: In TR-FRET formats the signal depends on donor and acceptor labels being close together.

Assay [2] deals with Human CB1R (Cannabinoid receptor 1) (Homo sapiens, UniProt P21554). Briefly: CB-1 in vitro cAMP (HTRF) assay. Type of assay: cell-based. To be noted: HEK cells, cAMP HTRF, 250 nM forskolin; mean where tested more than once; read-out: CB1 HEK_cAMP EC50. The gist of the method:
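Intracellular cAMP from HTRF ratio (d2-cAMP vs Eu-cryptate anti-cAMP), converted to nM via per-plate standards, in stable human CB1R HEK-293 cells.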

Human CB1R (Cannabinoid receptor 1), sequence (P21554 whole entry): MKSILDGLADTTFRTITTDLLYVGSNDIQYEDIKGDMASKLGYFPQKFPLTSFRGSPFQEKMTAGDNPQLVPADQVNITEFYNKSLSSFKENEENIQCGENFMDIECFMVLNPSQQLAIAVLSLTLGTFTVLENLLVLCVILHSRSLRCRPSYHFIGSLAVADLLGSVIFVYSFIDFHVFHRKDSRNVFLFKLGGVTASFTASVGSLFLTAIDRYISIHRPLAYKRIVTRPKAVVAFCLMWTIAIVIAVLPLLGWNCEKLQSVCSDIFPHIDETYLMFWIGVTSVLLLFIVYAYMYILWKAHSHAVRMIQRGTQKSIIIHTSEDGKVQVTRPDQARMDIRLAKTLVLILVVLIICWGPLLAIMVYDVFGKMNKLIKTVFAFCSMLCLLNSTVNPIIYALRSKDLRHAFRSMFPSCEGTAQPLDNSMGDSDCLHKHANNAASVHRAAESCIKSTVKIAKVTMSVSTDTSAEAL

Turning to `Clc1ccc(C(c2ccc3nc(C4CC4)n(C4CCc5ccccc5C4)c3c2)c2nccs2)cc1` (stereo not shown) [Example 342], the EC50 in assay [1] is over 10000 nM; in assay [2], 184 nM.

On to `O=C(O)c1cccc(CN2CCC(n3c(C4CC4)nc4ccc(C(c5ccccc5)c5ccc(Cl)cc5)cc43)CC2)c1` (stereo not shown) [Example 101], for which the EC50 in assay [1] was over 10000 nM; in assay [2], 28.5 nM.

On to `NC(=O)c1cncc(CN2CCC(n3c(C4CC4)nc4ccc(C(c5ccc(Cl)cc5)c5ccc(Cl)cc5)cc43)CC2)c1` [Example 121], for which the half-maximal effective concentration (EC50) turned out to be 7970 nM in assay [1] and 5.1 nM in assay [2].

As for `O=S(=O)(c1ccccc1C(F)(F)F)N1CCC(n2c(C3CC3)nc3ccc(C(c4ccc(Cl)cc4)c4ccc(Cl)cc4)cc32)CC1` [Example 272], the figures for the EC50 in assay [1] and in assay [2] were over 10000 nM and 10.8 nM, respectively.

As for `NC(=O)c1ccc(S(=O)(=O)N2CCC(n3c(C4CC4)nc4ccc(C(c5ccc(Cl)cc5)c5ccc(Cl)cc5)cc43)CC2)cc1Cl` [Example 252], the EC50 was determined as 6240 nM in assay [1] and 13.1 nM in assay [2].

With `O=S(=O)(N1CCC(n2c(-c3ccc(Cl)cc3)nc3ccc(C(c4ccc(Cl)cc4)c4nccs4)cc32)CC1)C(F)(F)F` (stereo not shown) [Example 394], the EC50 was over 10000 nM in assay [1] and 4840 nM in assay [2].

Consider `Cc1cc(S(=O)(=O)N2CCC(n3c(C4CC4)nc4ccc(C(c5ccc(Cl)cc5)c5ccc(Cl)cc5)cc43)CC2)ccc1C(N)=O` [Example 206], for which the EC50 in assay [1] is over 10000 nM; in assay [2], 101 nM.

`Clc1ccc(C(c2ccc(Cl)cc2)c2ccc3nc(C4CC4)n(C4Cc5ccccc5C4)c3c2)cc1` [Example 300]: the EC50 in assay [1] is over 10000 nM; in assay [2], 163 nM.

For the molecule `CC(C)(C)c1nc2ccc(C(c3ccc(Cl)cc3)c3ccc(Cl)cc3)cc2n1C1CCN(S(=O)(=O)C(F)(F)F)CC1` [Example 291], the EC50 in assay [1] was over 10000 nM; in assay [2] it was 2260 nM.

For the molecule `NC(=O)c1csc(S(=O)(=O)N2CCC(n3c(C4CC4)nc4ccc(C(c5ccc(Cl)cc5)c5ccc(Cl)cc5)cc43)CC2)c1` [Example 216], the EC50 in assay [1] is over 10000 nM; in assay [2] it was 6.2 nM.

In the case of `NC(=O)COc1ccc(N2CCC(n3c(C4CC4)nc4ccc(C(c5ccc(Cl)cc5)c5ccc(Cl)cc5)cc43)CC2)cc1` [Example 142], the EC50 was 5250 nM in assay [1] and 21.5 nM in assay [2].

On to `Clc1ccc(C(c2ccc3nc(C4CNC4)n(CCc4cccc(Cl)c4)c3c2)c2nccs2)cc1` (stereo not shown) [Example 404], for which the figures for the EC50 in assay [1] and in assay [2] were over 10000 nM and 6150 nM, respectively.

Regarding `O=C(O)c1ccc(C(=O)N2CCC(n3c(C4CC4)nc4ccc(C(c5ccc(Cl)cc5)c5ccc(Cl)cc5)cc43)CC2)cn1` [Example 231], the figures for the EC50 in assay [1] and in assay [2] were over 10000 nM and 709 nM, respectively.

As to `CCOC(=O)N1CCC(n2cnc3ccc(C(c4ccc(Cl)cc4)c4nccs4)cc32)CC1` (stereo not shown) [Example 448], the results for the EC50 in assay [1] and in assay [2] were over 10000 nM and 100 nM, respectively.

For the molecule `O=S(=O)(c1ccc(O)c(F)c1)N1CCC(n2c(C3CC3)nc3ccc(C(c4ccc(Cl)cc4)c4ccc(Cl)cc4)cc32)CC1` [Example 220], the figures for the EC50 in assay [1] and in assay [2] were 5840 nM and 1370 nM, respectively.

As for `CCC(c1cccc(C(=O)O)c1)N1CCC(n2c(C3CC3)nc3ccc(C(c4ccc(Cl)cc4)c4ccc(Cl)cc4)cc32)CC1` (stereo not shown) [Example 49], the EC50 in assay [1] amounted to 4400 nM; in assay [2], 8.5 nM.

For the molecule `CC(C)Cc1nc2ccc(C(c3ccc(Cl)cc3)c3nccs3)cc2n1C1CCN(S(=O)(=O)C(F)(F)F)CC1` (stereo not shown) [Example 396], the EC50 in assay [1] came to 91 nM; in assay [2], 221 nM.

As for `O=C(O)c1ccc(N[C@H]2CC[C@H](n3c(C4CC4)nc4ccc(C(c5ccc(Cl)cc5)c5ccc(Cl)cc5)cc43)CC2)cc1` [Example 30], the EC50 in assay [1] is 1620 nM; in assay [2] it was 40.2 nM.

Regarding `O=S(=O)(c1cccc(C(F)(F)F)c1)N1CCC(n2c(C3CC3)nc3ccc(C(c4ccc(Cl)cc4)c4ccc(Cl)cc4)cc32)CC1` [Example 284], the EC50 in assay [1] is over 10000 nM; in assay [2], 5.7 nM.

Consider `O=S(=O)(N1CCC(n2c(C3CC3)nc3c(O)cc(C(c4ccc(Cl)cc4)c4ccc(Cl)cc4)cc32)CC1)C(F)(F)F` [Example 202], for which the EC50 is over 10000 nM in assay [1] and 31.2 nM in assay [2].

As for `CCOC(=O)N1CCC(n2c(C3CC3)nc3ccc(C(c4ccc(Cl)cc4)c4nccs4)cc32)CC1` (stereo not shown) [Example 421], the EC50 in assay [1] is over 10000 nM; in assay [2] it was 112 nM.

For `Cc1cc(S(=O)(=O)N2CCC(n3c(C4CC4)nc4ccc(C(c5ccc(Cl)cc5)c5ccc(Cl)cc5)cc43)CC2)ccc1C(=O)O` [Example 207], the results for the EC50 in assay [1] and in assay [2] were 4660 nM and 6.4 nM, respectively.

Regarding `O=C(OC1CCCC1)N1CCC(n2c(C3CC3)nc3ccc(C(c4ccc(Cl)cc4)c4ccc(Cl)cc4)cc32)CC1` [Example 71], the EC50 in assay [1] was 4880 nM; in assay [2] it was 27.4 nM.

For `COc1ccccc1S(=O)(=O)N1CCC(n2c(C3CC3)nc3ccc(C(c4ccc(Cl)cc4)c4ccc(Cl)cc4)cc32)CC1` [Example 275], the EC50 is over 10000 nM in assay [1] and 1.6 nM in assay [2].

As to `Clc1ccc(C(c2ccc3ncn(CCc4cccc(Cl)c4)c3c2)c2nccs2)cc1` (stereo not shown) [Example 438], the EC50 was over 10000 nM in assay [1] and 315 nM in assay [2].

`COC(=O)CN1CCC(n2c(C3CC3)nc3ccc(C(c4ccc(Cl)cc4)c4ccc(Cl)cc4)cc32)CC1` [Example 64]: the concentration giving a half-maximal response (EC50) in assay [1] came out at 2350 nM; in assay [2] it was 2.6 nM.

With `O=S(=O)(N1CCC(n2c(C3CC3)nc3ccc(C(CO)(c4ccc(Cl)cc4)c4ccc(Cl)cc4)cc32)CC1)C(F)(F)F` [Example 245], the concentration giving a half-maximal response (EC50) is over 10000 nM in assay [1] and 283 nM in assay [2].

Take `NC(=O)c1ccc(Cn2c(C3CC3)nc3ccc(C(c4ccc(Cl)cc4)c4ccc(Cl)cc4)cc32)cc1` [Example 133]: the EC50 was 3500 nM in assay [1] and 812 nM in assay [2].

`CCc1nc2ccc(C(CO)(c3ccc(Cl)cc3)c3ccc(Cl)cc3)cc2n1C1CCN(S(=O)(=O)C(F)(F)F)CC1` [Example 244]: the results for the EC50 in assay [1] and in assay [2] were over 10000 nM and 534 nM, respectively.

As to `FC(F)(F)c1ccc(CCn2c(C3CC3)nc3ccc(C(c4ccc(Cl)cc4)c4ccc(Cl)cc4)cc32)cc1` [Example 309], the values for the EC50 in assay [1] and in assay [2] were 5200 nM and 3.4 nM, respectively.

On to `NC(=O)[C@H]1CC[C@H](n2c(C3CC3)nc3ccc(C(c4ccc(Cl)cc4)c4ccc(Cl)cc4)cc32)CC1` [Example 135], for which the EC50 in assay [1] was over 10000 nM; in assay [2] it was 53.2 nM.

For `COC(=O)C(c1ccc(Cl)cc1)(c1ccc(Cl)cc1)c1ccc2nc(C3CC3)n(CC3CCN(S(=O)(=O)C(F)(F)F)CC3)c2c1` [Example 14], the EC50 in assay [1] is over 10000 nM; in assay [2], 17 nM.

On to `COc1cc(S(=O)(=O)N2CCC(n3c(C4CC4)nc4ccc(C(c5ccc(Cl)cc5)c5ccc(Cl)cc5)cc43)CC2)ccc1C(=O)O` [Example 251], for which the EC50 in assay [1] is 730 nM; in assay [2], 5.8 nM.

For `FC(F)(F)c1ccccc1CN1CCC(n2c(C3CC3)nc3ccc(C(c4ccc(Cl)cc4)c4ccc(Cl)cc4)cc32)CC1` [Example 84], the EC50 was over 10000 nM in assay [1] and 67.7 nM in assay [2].

Regarding `O=C(O)c1ccnc(CN2CCC(n3c(C4CC4)nc4ccc(C(c5ccc(Cl)cc5)c5ccc(Cl)cc5)cc43)CC2)c1` [Example 88], the results for the EC50 in assay [1] and in assay [2] were over 10000 nM and 33 nM, respectively.

For `NC(=O)c1cccc(N2CCC(n3c(C4CC4)nc4ccc(C(c5ccc(Cl)cc5)c5ccc(Cl)cc5)cc43)CC2)c1` [Example 162], the results for the EC50 in assay [1] and in assay [2] were 4490 nM and 6.2 nM, respectively.

On to `O=S(=O)(NCCCn1c(C2CC2)nc2ccc(C(c3ccc(Cl)cc3)c3ccc(Cl)cc3)cc21)c1cccc(Br)c1` [Example 9], for which the results for the EC50 in assay [1] and in assay [2] were 798 nM and 17 nM, respectively.

Consider `O=C(O)c1ccc(S(=O)(=O)N2CCC(n3c(C4CC4)nc4ccc(C(CO)(c5ccc(Cl)cc5)c5ccc(Cl)cc5)cc43)CC2)cc1` [Example 228], for which the EC50 is over 10000 nM in assay [1] and 8300 nM in assay [2].

For orientation: EC50 means the concentration that produces a half-maximal response.
